# In US7267815B2, “Methods and reagents for the enhancement of virus transduction in the bladder epithelium” (priority 2002, dated 2007):
# Counter-ions that a name gives are not always drawn. Like-named read-outs stand apart in the source and are kept apart here.
# What was measured:
# [1] = tested on: bladder epithelium; test: Effect of chemical agent pretreatment on adenovirus-mediated gene transfer and expression (Ad-βgal, X-gal staining); format: in vivo, mouse (BALB/c); conditions: for effect on transduction (in words): bladder pretreatment followed by Ad-LacZ
# Description: 152 female BALB/c mice were used this study.
# The route of administration of the chemical agent and virus was intravesical.
# 3. Based on the reagent being tested, bladder pretreatment was performed as follows:
# Poloxomer 407 procedure: Washed 2 times with 100 μl each. Retained the 3rd wash for 5 min and gave one additional wash. Performed 3 times PBS wash prior to virus instillation.
# Poloxomer 188 procedure: Washed 2 times with 100 μl each. Retained the 3rd wash for 5 minutes and gave one additional wash. Performed 3 times PBS wash prior to virus instillation.
# Lipofectamine 2000 procedure: Added 5 μl of stock Lipofectamine (1 mg/ml) to 195 μl of PBS-10% glycerol. Mixed with an equal volume of Ad-βgal virus and incubated for 15 minutes. Administered 100 μl of the mixture intravesically and retained in the bladder for 30 minutes.
# Benzyl Alcohol procedure: Washed 2 times with 100 μl each. Retained the 3rd wash for 15 minutes and then gave one additional wash. Performed 3 times PBS wash prior to virus instillation.
# Performed 3 times PBS wash prior to virus instillation.
# Polidocanol procedure: Washed 2 times with 100 μl each. Retained the 3rd wash for 5 min and then gave one additional wash. Performed 3 times PBS wash prior to virus instillation.
# DC-Cho procedure: Washed 2 times with 100 μl each. Retained the 3rd wash for 5 min and then gave one additional wash. Performed 3 times PBS wash prior to virus instillation.
# 0.4% HPMC 2910 procedure: No pretreatment. An equal volume of the virus was mixed with 0.8% solution of HPMC2910 and the mixture was instilled into the bladder for 30 minutes.
# 100 mg/ml Poly-Lysine procedure: No pretreatment. An equal volume of the virus was mixed with 100 mg/ml solution of Poly-Lysine and the mixture was instilled into the bladder for 30 minutes.
# 0.4% polyvinyl alcohol (PVA) procedure: No pretreatment. An equal volume of the virus was mixed with 0.8% solution of PVA and the mixture was instilled into the bladder for 30 minutes.
# n-dodecyl-β-D glucopyranoside procedure: Washed 2 times with 100 μl each. Retained the 3rd wash for 5 min and then gave one additional wash. Performed 3 times PBS wash prior to virus instillation.
# 0.4% PVP procedure: No pretreatment. An equal volume of the virus was mixed with 0.8% solution of PVP and the mixture was instilled into the bladder for 30 min.
# 0.1% cholesterol-cyclodextrin reagent procedure: No pretreatment. An equal volume of the virus was mixed with 0.2% solution of Cholesterol-Cyclodextrin and the mixture was instilled into the bladder for 30 minutes.
# n-dodecyl-β-D-maltoside procedure: Washed 2 times with 100 μl each. Retained the 3rd wash for 5 min and then gave one additional wash. Performed 3 times PBS wash prior to virus instillation.
# Sodium salt of dodecyl benzenesulfonic acid procedure: Washed 2 times with 100 μl each. Retained the 3rd wash for 5 min and then gave one additional wash. Performed 3 times PBS wash prior to virus instillation.
# 0.1% sodium dodecyl sulphate procedure: Wash 2 times with 100 μl each. Retained the 3rd wash for 5 min and then gave one additional wash. Performed 3 times PBS wash prior to virus instillation.
# 0.1% Tween 20 procedure: Washed 2 times with 100 μl each. Retained the 3rd wash for 5 min and then gave one additional wash. Performed 3 times PBS wash prior to virus instillation.
# 0.1% Triton® X-100 procedure: Washed 2 times with 100 μl each. Retained the 3rd wash for 5 min and then gave one additional wash. Perform 3 times PBS wash prior to virus instillation.
# 0.1% Forlan C-24 procedure: Washed 2 times with 100 μl each. Retained the 3rd wash for 5 min and then gave one additional wash. Performed 3 times PBS wash prior to virus instillation.
# 0.1% decyl-b-D-maltoside procedure: Washed 2 times with 100 μl each. Retained the 3rd wash for 5 min and then gave one additional wash. Performed 3 times PBS wash prior to virus instillation.
# 0.1% 6-cyclohexylhexyl-b-D-maltoside procedure: Washed 2 times with 100 μl each. […]
# [2] = tested on: bladder epithelium; test: Transduction efficacy of exemplary pretreatment agents (summary Table 7); format: in vivo, mouse; conditions: pretreatment agent
# [3] = tested on: SD rat bladder epithelium; test: Adenovirus dose titration with SDS or DDM pretreatment; format: in vivo, Sprague Dawley Rat; conditions: 0.1% pretreatment
# From the text: All the animals had >90% in Ad-βgal gene expression in mice bladder. Adenovirus Dose Titration with Different Chemical Agents Pretreatment on SD Rat Bladder Epithelium • Species: Female Sprague Dawley Rat (Taconic Laboratory)—2/group • Study Design: To test the virus infectivity of rat bladder epithelium with different doses of Adenovirus following the pretreatment with SDS or DDM. This study also explored relationship between bladder volume and residual of SDS or DDM for adenovirus infectivity. • Dose/Route:
# Rat bladders infected with 4×10^10 vp adenovirus achieved >90% Ad-βgal gene expression levels whereas rat bladders infected with 4×10^9 vp adenovirus had Ad-βgal gene expression levels range from 30% to 50%. […] Efficacy of Dodecyl-β-D-Maltoside as a Pretreatment Agent Prior to Adenovirus Infection of Mice Bladder Urothelium • Species: Female Balb/c Mouse (Taconic Laboratory)—2/group • Study Design: To test DDM from two different suppliers as pretreatment agents to enhance the adenovirus infection of mice bladder urothelium in a large group of animals. • Dose/Route: […]
# [4] = tested on: adenovirus; test: Study #4: degradation of adenovirus by SDS (anion exchange chromatography); format: physicochemical; conditions: 37° C.
# Description: A series of experiments were preformed on samples of adenovirus incubated at 37° C. for 15-30 minutes in various concentrations of SDS. The resulting material was examined by anion exchange chromatography.
# [5] = tested on: adenovirus (Ad-LacZ); test: Study #5: adenovirus stability after incubation with 0.1% SDS or 0.1% DDM (plaque assay); format: physicochemical; conditions: 0.1% solution, one hour at 25° C. or 37° C.
# Description: In this study, adenovirus (Ad-LacZ) preparations (1.0×10^12 vp/ml) were mixed with solutions of SDS or DDM to obtain a mixture of adenovirus and each of these surfactants. […] These samples were incubated at 25° C. or 37° C. for one hour before freezing. They were sent to assay services for plaque assay analysis.
# [6] = tested on: Ad5-LacZ adenovirus; test: Study #1: compatibility of Ad5-LacZ with ethanol and urine (plaque assay); format: physicochemical; conditions: 40% ethanol, 37° C. one hour
# Description: In this study, each sample was incubated at 37° C. for one hour before the plaque assay started.
# [7] = tested on: Ad5-LacZ adenovirus; test: Study #2: compatibility of Ad5-LacZ with ethanol (plaque assay); format: physicochemical; conditions: higher concentrations of ethanol (i.e., ≧10%)
# Description: For this study, each sample was incubated at 37° C. before the plaque assay started.
# [8] = tested on: bladder epithelium
# Description: A study was conducted to evaluate the effect of ethanol pretreatment on adenovirus-mediated gene transfer and expression in the bladder epithelium of rodents.
# Ad-βgal virus was made as a frozen formulation using standard conditions known in the art for freezing and formulation of adenovirus. The vehicle for the virus arm was PBS plus 10% glycerol.
# 80 female BALB/c mice were used for this study. Female animals are chosen because of the ease of urethral cannulation and vesicle instillation. The mice were approximately 10 to 12 weeks on the day of the start of the experiment.
# Animals were anesthetized with isoflurane and a 24 g catheter introduced through the urethra into the bladder.
# Residual urine was emptied and the bladder was flushed 3 times with 100-150 μl each of PBS.
# Ad-βgal viruses diluted in 0.1 ml of PBS-10% glycerol were administered intravesically into the bladder and retained in the bladder for 45 minutes. A knot was placed around the urethral orifice to prevent leakage of the virus and to prevent the catheter from dislodging.
# Treatment was stopped by withdrawing the virus and flushing the bladders 3 times with 100-150 μl of PBS. […]
# Animals were killed 48 hours after treatment. […] Transgene expression in the luminal epithelium of the longitudinally opened bladders was empirically determined.
# [9] = tested on: bladder; test: Histopathology of bladders after chemical agent pretreatment (pathologists report); format: in vivo, mouse (BALB/c)
# From the text: Bladders fixed in whole organ fixative were sectioned and stained with hematoxylin-eosin for histologic examination.
# [10] = tested on: adenovirus; test: Study #3: compatibility of adenovirus with selected enhancers (plaque assay); format: physicochemical
# Description: For this study, each sample was incubated at 37° C. or 25° C. before the plaque assay started.
# [11] = 0.2% pre-treatment for 5 minutes
# [12] = 0.02% pre-treatment for 5 minutes
# [13] = 0.05% pre-treatment for 5 minutes
Compound,response class (level of transduction) [1],effect on transduction (in words) [1],Transduction Efficacy [2],other results
OC[C@H]1O[C@H](O[C@H]2[C@H](O)[C@@H](O)[C@H](OCCCCCCC3CCCCC3)O[C@@H]2CO)[C@H](O)[C@@H](O)[C@@H]1O [6-cyclohexylhexyl-β-D-maltoside],strongest response,increased transduction significantly,++++ (“++++” means >75% transduction efficacy),
CCCCCCCCCCOS(=O)(=O)[O-].[Na+] [Sodium decyl sulfate],,,+ (“+” means 10-25% transduction efficacy),
"CCCCCCCCCCCCOS(=O)(=O)O [Sodium dodecyl sulfate, sodium dodecyl sulfate]",strongest response,,++++ (“++++” means >75% transduction efficacy),"removal of GAG layer of bladder epithelium [3]: effective to remove GAG layer of bladder epithelium; degradation of the virus (AEX) ([4]; SDS above or equal to 0.025%, 15-30 minutes): will rapidly degrade the virus; particle quality or quantity by AEX method ([4]; SDS at 0.0125%, 30 minutes of incubation): did not reduce the particle quality or quantity; effect on adenovirus (in words) [5]: will inactivate the virus"
CCO [ethanol],,,,"effect on the virus (in words) [6]: inactivated most of the virus; effect on adenovirus (in words) [7]: partial to complete inactivation of adenovirus; transduction ([8]; 15%, 20%, 25%, and 30 wt. % ethanol pretreatment for 20 minutes, then Ad-βgal 45 min, 48 hours): 10-20%; transduction ([8]; ethanol percentage as high as 30%, reference pre-treatment): 10-20%"
"CCCCCCCCCCCCO[C@H]1O[C@H](CO)[C@@H](O[C@H]2O[C@H](CO)[C@@H](O)[C@H](O)[C@H]2O)[C@H](O)[C@H]1O [n-Dodecyl-α-D-Maltoside, n-dodecyl-α-D-maltoside]",,,++++ (“++++” means >75% transduction efficacy),
CCCCCCCCCCCCCCO[C@@H]1O[C@H](CO)[C@@H](O[C@H]2O[C@H](CO)[C@@H](O)[C@H](O)[C@H]2O)[C@H](O)[C@H]1O [n-Tetradecyl-β-D-Maltoside],,,++ (“++” means 25-50% transduction efficacy),
CCCCCCCCCCCCCOC1OC(CO)C(OC2OC(CO)C(O)C(O)C2O)C(O)C1O [n-Tridecyl-β-D-Maltoside],,,+++ (“+++” means 50-75% transduction efficacy),
CCCCCCCCCCO[C@@H]1O[C@H](CO)[C@@H](O[C@H]2O[C@H](CO)[C@@H](O)[C@H](O)[C@H]2O)[C@H](O)[C@H]1O [n-decyl-β-D-maltoside],weak responders (had significantly less stained area compared to the ethanol control group),only a slight effect on transduction,+ (“+” means 10-25% transduction efficacy),
CCCCCCCCCCCCO[C@@H]1O[C@H](CO)[C@@H](O)[C@H](O)[C@H]1O [n-dodecyl-β-D-glucopyranoside],,little or no enhancement of transduction,,
CCCCCCCCCCCCc1ccc(S(=O)(=O)[O-])cc1.[Na+] [sodium salt of dodecyl-benzenesulfonic acid],strongest response,enhanced the transduction of Ad-LacZ in murine bladders,+ (“+” means 10-25% transduction efficacy),"transduction of the urothelium [1, 11]: 20-40%"
Triton X-100,weak responders (had significantly less stained area compared to the ethanol control group),found to enhance transduction,+ (“+” means 10-25% transduction efficacy),
"polyethyleneglycoldodecyl ether [polidocanol, reference compound]",strongest response,,++ (“++” means 25-50% transduction efficacy),"transduction of the urothelium [1, 12]: 10-20%; transduction of the urothelium [1, 13]: 30-40%; transduction of the urothelium [1, 11]: 50-80%; pathologists report [9, 12]: intact mucosa; pathologists report [9, 13]: minimal submucosal edema; pathologists report [9, 11]: erosions and focal ulcer as well as mucosal compromise; Average pfu/mL ([10]; 25° C., 2 hours): 1.02E+10 pfu/mL; Ratio vp/pfu ([10]; 25° C., 2 hours): 21 vp/pfu; Average pfu/mL ([10]; 37° C., 1 hour): 1.22E+10 pfu/mL; Ratio vp/pfu ([10]; 37° C., 1 hour): 17 vp/pfu; compatibility with the adenovirus (in words) ([10]; under the experimental conditions of Table 5): compatible with the adenovirus"
sucrose monolaurate,,,++++ (“++++” means >75% transduction efficacy),
